Experimental data: the supplement of paper PMC10307832

Tests used:
Assay in all cases: relative viability (nuclei count vs DMSO), 5 days (fraction); higher = more cells survive
[1] = compound: CN1C=C(C2=CC=CC=C21)/C=C\3/C4=C(C=CC=N4)NC3=O + Nc1ncn([C@H]2C[C@H](O)[C@@H](CO)O2)c(=O)n1 [Decitabine] (partner 2 µM)
How it was run: (§1)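 Medians of duplicate plates are given as relative viability. That measure is the nuclei count in treated wells divided by the count in vehicle wells. Counts were taken on 4× images of lung cancer cell lines in 1536-well plates, 5 days after pin-tool dosing the day after seeding with one drug alone or a fixed anchor-drug dose plus five library-drug doses (not always all listed) in √10 steps.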

[2] = compound: CN1C=C(C2=CC=CC=C21)/C=C\3/C4=C(C=CC=N4)NC3=O + CS(=O)(=O)N1CCN(Cc2cc3nc(-c4cccc5[nH]ncc45)nc(N4CCOCC4)c3s2)CC1 [Pictilisib] (partner 1 µM)
How it was run: as §1

Trametinib + Lapatinib = compound: CC(=O)Nc1cccc(-n2c(=O)n(C3CC3)c(=O)c3c(Nc4ccc(I)cc4F)n(C)c(=O)c(C)c32)c1 [Trametinib] + CS(=O)(=O)CCNCc1ccc(-c2ccc3ncnc(Nc4ccc(OCc5cccc(F)c5)c(Cl)c4)c3c2)o1 [Lapatinib] (partner 2 µM)
How it was run: as §1

Trametinib + Crizotinib = compound: CC(=O)Nc1cccc(-n2c(=O)n(C3CC3)c(=O)c3c(Nc4ccc(I)cc4F)n(C)c(=O)c(C)c32)c1 [Trametinib] + C[C@@H](Oc1cc(-c2cnn(C3CCNCC3)c2)cnc1N)c1c(Cl)ccc(F)c1Cl [Crizotinib] (partner 1 µM)
How it was run: as §1

| Cell Line | relative viability ([1]; first compound 0.02 µM) | relative viability ([1]; first compound 0.06325 µM) | relative viability ([1]; first compound 0.2 µM) | relative viability ([1]; first compound 0.6325 µM) | relative viability ([1]; first compound 2 µM) | relative viability ([2]; first compound 0.02 µM) | relative viability ([2]; first compound 0.06325 µM) | relative viability ([2]; first compound 0.2 µM) | relative viability ([2]; first compound 0.6325 µM) | relative viability ([2]; first compound 2 µM) | relative viability (Trametinib + Lapatinib; first compound 0.0025 µM) | relative viability (Trametinib + Lapatinib; first compound 0.007906 µM) | relative viability (Trametinib + Lapatinib; first compound 0.025 µM) | relative viability (Trametinib + Lapatinib; first compound 0.07906 µM) | relative viability (Trametinib + Lapatinib; first compound 0.25 µM) | relative viability (Trametinib + Crizotinib; first compound 0.0025 µM) | relative viability (Trametinib + Crizotinib; first compound 0.007906 µM) | relative viability (Trametinib + Crizotinib; first compound 0.025 µM) | relative viability (Trametinib + Crizotinib; first compound 0.07906 µM) | relative viability (Trametinib + Crizotinib; first compound 0.25 µM) |
| --- | --- | --- | --- | --- | --- | --- | --- | --- | --- | --- | --- | --- | --- | --- | --- | --- | --- | --- | --- | --- |
| HCC-15 | 0.562 | 0.566 | 0.656 | 0.579 | 0.814 | 0.717 | 0.639 | 0.775 | 0.666 | 0.771 | 0.806 | 0.461 | 0.572 | 0.328 | 0.223 | 0.658 | 0.53 | 0.415 | 0.259 | 0.187 |
| NCI-H2087 | 0.227 | 0.239 | 0.255 | 0.326 | 0.363 | 0.942 | 0.833 | 0.769 | 0.793 | 0.951 | 1.1 | 0.665 | 0.496 | 0.254 | 0.18 | 0.888 | 0.667 | 0.495 | 0.33 | 0.289 |
| NCI-H1650 | 0.419 | 0.427 | 0.378 | 0.385 | 0.45 | 0.539 | 0.561 | 0.436 | 0.505 | 0.573 | 0.899 | 0.714 | 0.567 | 0.568 | 0.151 | 1.04 | 0.779 | 0.795 | 0.69 | 0.302 |
| LK-2 | 0.225 | 0.24 | 0.192 | 0.275 | 0.375 | – | 0.364 | 0.458 | 0.453 | 0.557 | 0.797 | 0.758 | 0.822 | 0.711 | 0.375 | 0.283 | 0.217 | 0.226 | 0.299 | 0.241 |
| HCC-78 | 0.557 | 0.588 | 0.652 | 0.614 | 0.65 | 0.199 | 0.183 | 0.206 | 0.178 | 0.171 | 0.827 | 0.533 | 0.988 | 0.299 | 0.469 | 0.318 | 0.275 | 0.252 | 0.285 | 0.215 |
| NCI-H1666 | 0.7 | 0.701 | 0.591 | 0.764 | 0.658 | 0.552 | 0.322 | 0.318 | 0.272 | 0.26 | 0.354 | 0.414 | 0.405 | 0.387 | 0.265 | 0.74 | 0.766 | 0.72 | 0.586 | 0.394 |
| EKVX | 0.291 | – | – | 0.303 | 0.301 | 0.374 | 0.384 | 0.334 | 0.345 | 0.361 | 0.177 | 0.154 | 0.136 | 0.155 | 0.157 | 0.779 | 0.778 | 0.765 | 0.564 | 0.4 |
| COR-L 105 | 0.633 | 0.745 | 0.63 | 0.68 | 0.64 | 0.412 | 0.383 | 0.385 | 0.364 | 0.364 | 0.37 | 0.413 | 0.332 | 0.381 | 0.326 | 0.729 | 0.605 | 0.374 | 0.329 | 0.285 |
| NCI-H322M | 0.683 | 0.708 | 0.649 | 0.648 | 0.686 | 0.431 | 0.552 | 0.498 | 0.478 | 0.542 | 0.59 | 0.469 | 0.443 | 0.388 | 0.455 | 0.943 | 0.986 | 0.686 | 0.697 | 1.04 |
| HARA | 0.373 | 0.477 | – | 0.597 | 0.524 | 0.55 | 0.391 | 0.407 | 0.254 | 0.379 | 0.585 | 0.583 | 0.541 | 0.513 | 0.509 | 0.9 | 0.907 | 0.807 | 0.638 | 0.336 |
| NCI-H2023 | 0.245 | 0.215 | 0.193 | 0.229 | 0.245 | 0.258 | 0.17 | 0.128 | 0.193 | 0.181 | 0.947 | 0.356 | 0.383 | 0.579 | 0.181 | 0.597 | 0.543 | 0.475 | 0.442 | 0.247 |
| NCI-H1437 | 0.593 | 0.591 | 0.527 | 0.664 | 0.668 | 0.432 | 0.399 | 0.466 | 0.403 | 0.493 | 0.673 | 0.278 | 0.17 | 0.178 | 0.209 | 0.952 | 0.883 | 0.572 | 0.373 | 0.472 |
| BEN | 0.691 | 0.634 | 0.513 | 0.623 | 0.781 | 0.541 | 0.596 | 0.504 | 0.478 | 0.532 | 0.681 | 0.651 | – | 0.506 | 0.593 | 0.794 | 0.825 | – | 0.717 | 0.81 |
| LXF-289 | 0.403 | 0.338 | 0.425 | 0.396 | 0.381 | 0.811 | 0.764 | 0.793 | 0.77 | 0.806 | 0.863 | 0.759 | 0.677 | 0.615 | 0.57 | 0.738 | 0.711 | 0.608 | 0.531 | 0.353 |
| NCI-H358 | 0.233 | 0.186 | 0.195 | 0.204 | 0.246 | 0.33 | 0.319 | 0.301 | 0.338 | 0.387 | 0.38 | 0.376 | 0.309 | 0.295 | 0.328 | 0.526 | 0.349 | 0.276 | 0.243 | 0.194 |
| A549 | 0.332 | 0.207 | 0.133 | 0.225 | 0.324 | 0.544 | 0.474 | 0.465 | 0.46 | 0.529 | 0.749 | 0.667 | 0.618 | 0.499 | 0.0742 | 0.64 | 0.44 | 0.394 | 0.181 | 0.074 |
